Results from ChEMBL document CHEMBL1201862, “PubChem BioAssay data set” (2004).
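The compound was tested at five concentrations on cells cultured in 96-well plates, with a 48-hour exposure period. The concentration for 50% growth inhibition is given as GI50.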 The source made the active and inactive calls. Cut-off read from the data, not from the text of the source: active = GI50 up to about 1.1 µM and inactive = higher.

What was measured:
Assay in all cases: growth of human tumour cells (NCI), 48 h
SW-620 = tested on: SW-620
SF-268 = tested on: SF-268
MOLT-4 = tested on: MOLT-4
KM12 = tested on: KM12
KM-20L2 = tested on: KM-20L2
SNB-19 = tested on: SNB-19
DLD-1 = tested on: DLD-1
SK-MEL-2 = tested on: SK-MEL-2
RPMI-8226 = tested on: RPMI-8226
SF-539 = tested on: SF-539
NCI-H226 = tested on: NCI-H226
UACC-257 = tested on: UACC-257
HL-60 = tested on: HL-60
UO-31 = tested on: UO-31
786-0 = tested on: 786-0
MDA-N = tested on: MDA-N
MDA-MB-435 = tested on: MDA-MB-435
T47D = tested on: T47D
NCI/ADR-RES = tested on: NCI/ADR-RES
Hs-578T = tested on: Hs-578T

Measured: GI50

COc1cc(C=C2C(=O)OC(C)(C)OC2=O)cc(OC)c1OC
inactive: SW-620 > 100 µM | SF-268 > 100 µM | MOLT-4 > 100 µM | KM12 > 100 µM | KM-20L2 > 100 µM | SNB-19 > 100 µM | DLD-1 > 100 µM | SK-MEL-2 > 100 µM | RPMI-8226 > 100 µM | SF-539 > 100 µM | NCI-H226 > 100 µM | UACC-257 > 100 µM | HL-60 > 100 µM | UO-31 > 100 µM | 786-0 > 100 µM

CC(C)=CC1(C)/C(=N\O)C(C)(CC(C)C)C(=O)N1O (centres undefined)
inactive: SW-620 > 100 µM | MOLT-4 > 100 µM | KM12 > 100 µM | KM-20L2 > 100 µM | SNB-19 > 100 µM | DLD-1 > 100 µM | SK-MEL-2 > 100 µM | RPMI-8226 > 100 µM | SF-539 > 100 µM | NCI-H226 > 100 µM | UACC-257 > 100 µM | HL-60 > 100 µM | UO-31 > 100 µM | 786-0 > 100 µM

O=C(c1nc2ccc(Cl)cc2[nH]c1=O)C(O)c1cccc([N+](=O)[O-])c1 (centres undefined)
inactive: SF-268 33.3 µM | MOLT-4 35.9 µM | KM12 57 µM | KM-20L2 > 100 µM | SNB-19 > 100 µM | DLD-1 > 100 µM | SK-MEL-2 > 100 µM | RPMI-8226 9.66 µM | SF-539 > 100 µM | NCI-H226 > 100 µM | UACC-257 > 100 µM | HL-60 19.8 µM | UO-31 80.9 µM | 786-0 > 100 µM

C=CCCCN1CCCCC1=S
inactive: SW-620 > 100 µM | MOLT-4 > 100 µM | KM12 > 100 µM | KM-20L2 > 100 µM | SNB-19 > 100 µM | DLD-1 > 100 µM | SK-MEL-2 > 100 µM | RPMI-8226 > 100 µM | SF-539 > 100 µM | NCI-H226 > 100 µM | UACC-257 > 100 µM | HL-60 > 100 µM | UO-31 > 100 µM | 786-0 > 100 µM

COc1cc2c(cc1OCc1ccccc1)CNCC2
inactive: SW-620 24.3 µM | SF-268 > 100 µM | MOLT-4 > 100 µM | KM12 > 100 µM | KM-20L2 > 100 µM | SNB-19 > 100 µM | DLD-1 > 100 µM | SK-MEL-2 > 100 µM | SF-539 > 100 µM | NCI-H226 > 100 µM | UACC-257 > 100 µM | HL-60 70.3 µM | UO-31 > 100 µM | 786-0 > 100 µM

O=C(NC1C=CCC2C(=O)N(c3ccccc3)C(=O)C12)OCc1ccccc1 (centres undefined)
inactive: SW-620 > 100 µM | SF-268 > 100 µM | MOLT-4 > 100 µM | KM12 > 100 µM | KM-20L2 > 100 µM | SNB-19 > 100 µM | DLD-1 > 100 µM | SK-MEL-2 57.7 µM | RPMI-8226 > 100 µM | SF-539 > 100 µM | NCI-H226 > 100 µM | UACC-257 > 100 µM | HL-60 > 100 µM | UO-31 > 100 µM | 786-0 > 100 µM

COc1ccc(C(=O)/C=C/c2ccc(OCC(=O)N3CCN(c4ccccc4)CC3)cc2)cc1
inactive: MDA-N > 100 µM | SW-620 72.4 µM | MDA-MB-435 > 100 µM | SF-268 54 µM | MOLT-4 > 26.7 µM | KM12 > 76.4 µM | T47D 35.6 µM | KM-20L2 > 100 µM | SNB-19 27.9 µM | DLD-1 > 100 µM | SK-MEL-2 45.4 µM | RPMI-8226 > 39.8 µM | SF-539 18.9 µM | NCI-H226 > 83 µM | NCI/ADR-RES 43.2 µM | UACC-257 > 100 µM | Hs-578T > 40.7 µM | HL-60 > 35.6 µM | UO-31 44.2 µM | 786-0 30.1 µM

NC(=S)N1N=C2CCCCCC[C@@H]2[C@H]1c1ccccc1
inactive: SW-620 28.6 µM | SF-268 > 100 µM | MOLT-4 31.8 µM | KM12 35.2 µM | KM-20L2 62.1 µM | SNB-19 63.1 µM | DLD-1 56.2 µM | SK-MEL-2 64.6 µM | RPMI-8226 15.1 µM | SF-539 > 100 µM | NCI-H226 18.6 µM | UACC-257 36.6 µM | HL-60 19.2 µM | UO-31 16.7 µM | 786-0 67 µM

O=C(N/C(=C\c1cc(Cl)ccc1Cl)c1nc2cc(Cl)ccc2[nH]1)c1ccccc1
inactive: SW-620 16.9 µM | SF-268 13.8 µM | MOLT-4 8.04 µM | KM12 15.4 µM | KM-20L2 18.2 µM | SNB-19 22.4 µM | DLD-1 12.8 µM | SK-MEL-2 13.7 µM | RPMI-8226 12.2 µM | SF-539 20.1 µM | NCI-H226 17.3 µM | UACC-257 15 µM | HL-60 14.3 µM | UO-31 11.7 µM | 786-0 24.8 µM

CCc1cccc(C)c1NC(C)=O
inactive: SW-620 > 100 µM | MOLT-4 > 100 µM | KM12 > 100 µM | KM-20L2 > 100 µM | DLD-1 > 100 µM | SK-MEL-2 > 100 µM | RPMI-8226 > 100 µM | SF-539 > 100 µM | NCI-H226 > 100 µM | UACC-257 > 100 µM | HL-60 > 100 µM | UO-31 > 100 µM | 786-0 > 100 µM

O=C(c1cccs1)N(C(=S)N1CCN(c2ccccn2)CC1)c1ccccc1
inactive: SW-620 > 100 µM | SF-268 87.3 µM | MOLT-4 48.4 µM | KM12 > 100 µM | KM-20L2 > 100 µM | SNB-19 > 100 µM | DLD-1 > 100 µM | SK-MEL-2 57.4 µM | RPMI-8226 > 100 µM | SF-539 > 100 µM | NCI-H226 29 µM | UACC-257 83.2 µM | HL-60 > 100 µM | UO-31 39.2 µM | 786-0 > 100 µM
